Tests used:
[1] = Particle size distribution of polymeric L-carnosine zinc; format: physicochemical; conditions: L-carnosine zinc used in Comparative Example 1
Protocol: Step 2) Polymeric L-carnosine zinc with a particle size range of about 0.1 micron to about 85 microns, with a particle distribution such that 90% of the particles are 24.925 microns or smaller, 50% are 5.664 microns or smaller, and 10% are 0.826 or smaller, and the mean diameter was 9.878 microns was added to the hydrogel prepared in Step 1 to produce a composite polymeric hydrogel consisting of 150 mg L-carnosine zinc suspended in 5 ml of hydrogel.

[2] = tested on: ulcer tissue; conditions: chelate versus simple mixture; cited from earlier work

N-(3-aminopropionyl)-L-histidinatozinc [L-carnosine zinc]
mean diameter [1]: 9.878 microns | particle distribution, 10% of the particles are this size or smaller [1]: ≤ 0.826 | particle distribution, 50% of the particles are this size or smaller [1]: ≤ 5.664 microns | particle distribution, 90% of the particles are this size or smaller [1]: ≤ 24.925 microns | effectiveness compared with co-administration of a zinc salt together with L-carnosine [2]: more effective than the co-administration of a zinc salt together with L-carnosine in a simple mixture

Reference: patent publication US20160101048A1, “+L-CARNOSINE ZINC FORMULATIONS AND METHODS OF USE” (priority 2014, published 2016)
